US20230158071A1, “TUMOR COMBINED IMMUNOTHERAPY” (CRAGE medical Co., Limited, priority 2018, published 2023)

How the values were obtained:
Type in all cases: cell-based, mouse
806-mCD28z-CAR-T cells [1] = experiment: Flow cytometry (CellTrace) of CAR-T proliferation in co-culture with breast cancer cells; conditions: co-incubation 1:1, 16 hours
Method: The experimental groups are as follows: 806-mCD28z-CAR-T group (or denoted as 806-28Z), olaparib pretreatment group, and olaparib combined treatment group;
The olaparib pretreatment group comprises: 806-mCD28z-CAR-T+1 μM olaparib pretreatment group (or denoted as 806-28Z+Olaparib 1 μM pretreatment), 806-mCD28z-CAR-T+5 μM olaparib pretreatment group (or denoted as 806-28Z+Olaparib 5 μM pretreatment);
Olaparib combined treatment group comprises: 806-mCD28z-CAR-T+1 μM olaparib combined treatment group (or denoted as 806-28Z+Olaparib 1 μM), 806-mCD28z-CAR-T+5 μM olaparib combined treatment group (or denoted as 806-28Z+Olaparib 5 μM).
Before the co-incubation experiment, 806-mCD28z-CAR-T cells need to be stained with CellTrace dye. […]
Olaparib pretreatment group: different concentrations of olaparib (1 μM, 5 μM) are respectively added to a medium for culturing E0771-EGFRvIII or 4T1-EGFRvIII tumor cells, after culturing at 37° C. for 24 hours, the cells are treated with trypsin and resuspended in fresh medium. 806-mCD28z-CAR T cells in Example 1 are taken to co-incubate with E0771-EGFRVIII or 4T1-EGFRvIII cells pretreated with different concentrations of olaparib at a ratio of 1:1; 16 hours later, the proliferation of CAR-T cells and the expression levels of the T cell exhaustion-related proteins PD1, LAG3 and TIM3 on the surface of CAR-T cells are detected by flow cytometry. […]

4T1-EGFRvIII cells = experiment: CCK8 proliferation assay, olaparib on 4T1-EGFRvIII breast cancer cells
Excerpt: (§1) Since the EGFR287-302 epitope is only exposed in EGFRvIII or tumors overexpressing EGFR, this epitope is hidden in normal tissues (Gan H K et al., Targeting of a conformationally exposed, tumor-specific epitope of EGFR as a strategy for cancer therapy. Cancer Res. 2012, 72(12):2924-2930), conventional methods in molecular biology are used to establish E0771, 4T1 mouse breast cancer cell models (E0771-EGFRvIII, 4T1-EGFRvIII) that overexpress mouse EGFR inserted with amino acid epitope at positions 287-302 of human EGFR. Subsequent research is performed to screen EGFRvIII target-positive cells by cell flow cytometry (FIG. 2A). E0771, 4T1 cells are purchased from the American Type Culture Collection (ATCC).
(§2) As an effective inhibitor of PARP1, olaparib may inhibit PARP1 to participate in DNA damage repair process. In mouse breast cancer cell lines and mouse T cells and CART cells, different levels of PARP1 expression are detected (FIG. 2B). Therefore, CCK8 proliferation assay is required to detect the effect of olaparib on proliferation of tumor cells and CART cells.
(§3) 806-m28Z CAR-T cells in Example 1 are taken to spread in a 96-well plate with 1×10^4 cells per well and 100 μl medium. Breast cancer cells E0771-EGFRvIII and 4T1-EGFRvIII are taken to spread in a 96-well plate with 1×10^4 cells per well and 100 μl medium. Different concentrations of olaparib are taken to add to the cells to make 10 concentration gradients (i.e., the treatment concentrations of olaparib are respectively 50 μM, 20 μM, 10 μM, 5 μM, 2.5 μM, 1 μM, 0.1 μM, 0.01 μM, 0.001 μM, 0 μg/ml). After 48 hours of drug treatment for cells of different groups, 10 μl of CCK8 substrate color reagent (Dojindo) is added to each well; after incubating for 1 hour at 37° C., the absorbance at 450 nm is measured by a microplate reader, calculating the cell viability respectively.
(§4) The formula for calculating the cell viability is as follows:
(§5) Cell viability (%)=[A (adding drug)−A (blank)]/[A (without adding drug)−A (blank)]

806-mCD28z-CAR-T cells [2] = experiment: CCK8 proliferation assay, olaparib on CAR-T cells
Method: as §2, §3, §4, §5

E0771-EGFRvIII cells = experiment: CCK8 proliferation assay, olaparib on E0771-EGFRvIII breast cancer cells
Excerpt: as §1, §2, §3, §4, §5

[3] = 1 μM and higher concentration of olaparib, 48 hours, CCK8

Compound: O=C(c1cc(Cc2n[nH]c(=O)c3ccccc23)ccc1F)N1CCN(C(=O)C2CC2)CC1 [olaparib]
- proliferation of CART cells (806-mCD28z-CAR-T cells [1]; olaparib combined treatment group (1 μM, 5 μM), not statistically significant): slightly inhibited
- proliferation of CART cells (806-mCD28z-CAR-T cells [1]; olaparib pretreatment group (1 μM, 5 μM)): not significantly affected
- inhibition rate of proliferation of 4T1-EGFRvIII cell line (4T1-EGFRvIII cells; [3]): 30-40%
- proliferation of 4T1-EGFRvIII cells (4T1-EGFRvIII cells; 1 μM olaparib): inhibited
- proliferation of 4T1-EGFRvIII cells (4T1-EGFRvIII cells; 504 olaparib): inhibited
- proliferation of 806-mCD28z-CAR-T cells (806-mCD28z-CAR-T cells [2]; 1 μM olaparib): not affected
- inhibition rate of proliferation of 806-mCD28z-CAR-T cells (806-mCD28z-CAR-T cells [2]; 2.5 μM and higher concentration of olaparib, 48 hours, CCK8): ~80%
- concentration that may inhibit the growth of CAR-T cells (806-mCD28z-CAR-T cells [2]; in vitro): higher than 2.5 μM
- proliferation of 806-mCD28z-CAR-T cells (806-mCD28z-CAR-T cells [2]; olaparib): inhibited
- inhibition rate of proliferation of E0771-EGFRVIII cell line (E0771-EGFRvIII cells; [3]): 65%-90%
- proliferation of E0771-EGFRVIII cells (E0771-EGFRvIII cells; 1 μM olaparib): inhibited
- concentration that may inhibit the growth of tumor cells (E0771-EGFRvIII cells; in vitro, tumor cells not specified further): higher than 104
- proliferation of E0771-EGFRVIIII cells (E0771-EGFRvIII cells; olaparib): inhibited
